Measurements from PubChem BioAssay (NCI).
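Method: 48-hour compound exposure of cells in 96-well plates, five concentrations, linear interpolation of endpoints. Here, GI50 denotes the concentration required for 50% inhibition of growth. TGI: total growth inhibition.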

How the values were obtained:
Experiment in all cases: NCI-60 cell line screen, 48 h
PC-3 prostate = test system: PC-3 prostate
MALME-3M melanoma = test system: MALME-3M melanoma
HCT-116 colon = test system: HCT-116 colon
NCI-H226 lung = test system: NCI-H226 lung
SW-620 colon = test system: SW-620 colon
EKVX NSCLC = test system: EKVX NSCLC
NCI-H460 lung = test system: NCI-H460 lung
RXF 393 renal = test system: RXF 393 renal
A498 renal = test system: A498 renal
K-562 leukemia = test system: K-562 leukemia
NCI-H23 lung = test system: NCI-H23 lung
UO-31 renal = test system: UO-31 renal
SNB-19 CNS = test system: SNB-19 CNS
HOP-92 NSCLC = test system: HOP-92 NSCLC
OVCAR-4 ovarian = test system: OVCAR-4 ovarian
T-47D breast = test system: T-47D breast
IGROV1 ovarian = test system: IGROV1 ovarian
LOX IMVI melanoma = test system: LOX IMVI melanoma
MDA-MB-231 breast = test system: MDA-MB-231 breast
DU-145 prostate = test system: DU-145 prostate
SK-MEL-2 melanoma = test system: SK-MEL-2 melanoma
UACC-62 melanoma = test system: UACC-62 melanoma
U251 CNS = test system: U251 CNS
MCF7 breast = test system: MCF7 breast
HOP-62 NSCLC = test system: HOP-62 NSCLC
HL-60(TB) leukemia = test system: HL-60(TB) leukemia
ACHN renal = test system: ACHN renal
M14 melanoma = test system: M14 melanoma
TK-10 renal = test system: TK-10 renal
NCI/ADR-RES ovarian = test system: NCI/ADR-RES ovarian
SF-268 CNS = test system: SF-268 CNS
UACC-257 melanoma = test system: UACC-257 melanoma
SF-295 CNS = test system: SF-295 CNS
SK-MEL-28 melanoma = test system: SK-MEL-28 melanoma
KM12 colon = test system: KM12 colon
SK-OV-3 ovarian = test system: SK-OV-3 ovarian
A549 NSCLC = test system: A549 NSCLC
OVCAR-5 ovarian = test system: OVCAR-5 ovarian
SN12C renal = test system: SN12C renal
OVCAR-8 ovarian = test system: OVCAR-8 ovarian
SK-MEL-5 melanoma = test system: SK-MEL-5 melanoma
786-0 renal = test system: 786-0 renal
HCT-15 colon = test system: HCT-15 colon
NCI-H522 lung = test system: NCI-H522 lung
SNB-75 CNS = test system: SNB-75 CNS
SF-539 CNS = test system: SF-539 CNS
HS 578T breast = test system: HS 578T breast
MDA-MB-435 = test system: MDA-MB-435
HCC-2998 colon = test system: HCC-2998 colon
COLO 205 colon = test system: COLO 205 colon
RPMI-8226 leukemia = test system: RPMI-8226 leukemia
CAKI-1 renal = test system: CAKI-1 renal
HT29 colon = test system: HT29 colon
OVCAR-3 ovarian = test system: OVCAR-3 ovarian
MOLT-4 leukemia = test system: MOLT-4 leukemia

Q: What does the source list for C/C=C(\C)C(=O)O[C@H]1C=CC(=O)O[C@H]1CNC(=O)[C@H](C)O?
A: GI50 (PC-3 prostate): 24.5 µM; TGI (PC-3 prostate): 79.4 µM; GI50 (MALME-3M melanoma): 18.5 µM; TGI (MALME-3M melanoma): 35.1 µM; GI50 (HCT-116 colon): 13.1 µM; TGI (HCT-116 colon): 26 µM; GI50 (NCI-H226 lung): 17.9 µM; TGI (NCI-H226 lung): 46.7 µM; GI50 (SW-620 colon): 14.6 µM; TGI (SW-620 colon): 28.6 µM; GI50 (EKVX NSCLC): 26.2 µM; TGI (EKVX NSCLC): 67.4 µM; GI50 (NCI-H460 lung): 28.2 µM; TGI (NCI-H460 lung): 94.2 µM; GI50 (RXF 393 renal): 19.3 µM; TGI (RXF 393 renal): 40.1 µM; GI50 (A498 renal): 22.8 µM; TGI (A498 renal): 43.7 µM; GI50 (K-562 leukemia): 22.3 µM; TGI (K-562 leukemia): > 100 µM; GI50 (NCI-H23 lung): 22.1 µM; TGI (NCI-H23 lung): 47.8 µM; GI50 (UO-31 renal): 16.9 µM; TGI (UO-31 renal): 33.4 µM; GI50 (SNB-19 CNS): 30.5 µM; TGI (SNB-19 CNS): > 100 µM; GI50 (HOP-92 NSCLC): 14.6 µM; TGI (HOP-92 NSCLC): 28.9 µM; GI50 (OVCAR-4 ovarian): 17.3 µM; TGI (OVCAR-4 ovarian): 36.1 µM; GI50 (T-47D breast): 20 µM; TGI (T-47D breast): 73.9 µM; GI50 (IGROV1 ovarian): 22.6 µM; TGI (IGROV1 ovarian): 53.3 µM; GI50 (LOX IMVI melanoma): 15.9 µM; TGI (LOX IMVI melanoma): 30.4 µM; GI50 (MDA-MB-231 breast): 19.1 µM; TGI (MDA-MB-231 breast): 36.3 µM; GI50 (DU-145 prostate): 31.7 µM; TGI (DU-145 prostate): > 100 µM; GI50 (SK-MEL-2 melanoma): 20.1 µM; TGI (SK-MEL-2 melanoma): 51 µM; GI50 (UACC-62 melanoma): 16.1 µM; TGI (UACC-62 melanoma): 30.5 µM; GI50 (U251 CNS): 15.7 µM; TGI (U251 CNS): 29.9 µM; GI50 (MCF7 breast): 19.7 µM; TGI (MCF7 breast): 42.3 µM; GI50 (HOP-62 NSCLC): 23.9 µM; TGI (HOP-62 NSCLC): 54 µM; GI50 (HL-60(TB) leukemia): 16.8 µM; TGI (HL-60(TB) leukemia): 39.3 µM; GI50 (ACHN renal): 15.7 µM; TGI (ACHN renal): 29.9 µM; GI50 (M14 melanoma): 18.6 µM; TGI (M14 melanoma): 41 µM; GI50 (TK-10 renal): 17.2 µM; TGI (TK-10 renal): 31.8 µM; GI50 (NCI/ADR-RES ovarian): 26.2 µM; TGI (NCI/ADR-RES ovarian): 81.4 µM; GI50 (SF-268 CNS): 16.7 µM; TGI (SF-268 CNS): 35.7 µM; GI50 (UACC-257 melanoma): 17.1 µM; TGI (UACC-257 melanoma): 37.6 µM; GI50 (SF-295 CNS): 32.6 µM; TGI (SF-295 CNS): > 100 µM; GI50 (SK-MEL-28 melanoma): 17.4 µM; TGI (SK-MEL-28 melanoma): 32.4 µM; GI50 (KM12 colon): 17 µM; TGI (KM12 colon): 32 µM; GI50 (SK-OV-3 ovarian): 52.1 µM; TGI (SK-OV-3 ovarian): > 100 µM; GI50 (A549 NSCLC): 31.1 µM; TGI (A549 NSCLC): > 100 µM; GI50 (OVCAR-5 ovarian): 19.9 µM; TGI (OVCAR-5 ovarian): 38.3 µM; GI50 (SN12C renal): 18.9 µM; TGI (SN12C renal): 40.3 µM; GI50 (OVCAR-8 ovarian): 24.3 µM; TGI (OVCAR-8 ovarian): 65.9 µM; GI50 (SK-MEL-5 melanoma): 17 µM; TGI (SK-MEL-5 melanoma): 31.3 µM; GI50 (786-0 renal): 13.3 µM; TGI (786-0 renal): 26.1 µM; GI50 (HCT-15 colon): 15.6 µM; TGI (HCT-15 colon): 32 µM; GI50 (NCI-H522 lung): 11.6 µM; TGI (NCI-H522 lung): 31 µM; GI50 (SNB-75 CNS): 22.3 µM; TGI (SNB-75 CNS): 48.8 µM; GI50 (SF-539 CNS): 19.4 µM; TGI (SF-539 CNS): 35.4 µM; GI50 (HS 578T breast): 18.6 µM; TGI (HS 578T breast): 47.2 µM; GI50 (MDA-MB-435): 20.1 µM; TGI (MDA-MB-435): 44.7 µM; GI50 (HCC-2998 colon): 17.7 µM; TGI (HCC-2998 colon): 33.7 µM; GI50 (COLO 205 colon): 12.6 µM; TGI (COLO 205 colon): 29.3 µM; GI50 (RPMI-8226 leukemia): 21.3 µM; TGI (RPMI-8226 leukemia): 45.7 µM; GI50 (CAKI-1 renal): 26.8 µM; TGI (CAKI-1 renal): 44.4 µM; GI50 (HT29 colon): 18.9 µM; TGI (HT29 colon): 42.6 µM; GI50 (OVCAR-3 ovarian): 17 µM; TGI (OVCAR-3 ovarian): 30.9 µM; GI50 (MOLT-4 leukemia): 21.4 µM; TGI (MOLT-4 leukemia): 46.6 µM

Q: With Nc1ncnc2nc(-c3ccc(C[P+](c4ccccc4)(c4ccccc4)c4ccccc4)cc3)[nH]c12 as the compound, how does the GI50 (U251 CNS) read?
A: 32.7 µM

Q: What about the GI50 (786-0 renal) of the same compound?
A: 48.2 µM

Q: And the GI50 (SNB-75 CNS)?
A: 57.7 µM
